The record followed here is paper PMC6138237, “Machine intelligence decrypts β-lapachone as an allosteric 5-lipoxygenase inhibitor” (Chemical Science, 2018).

Read-outs that look alike come from different tables or passages of the source. Some results are limits rather than exact numbers.

Holding throughout (type): biochemical
For assay [1], the target named is IRK (Homo sapiens, UniProt P06213). Put plainly: ExpresS Diversity Kinase Profile, Cerep (LANCE): IRK. On the technique in general: In TR-FRET formats the signal depends on donor and acceptor labels being close together.
Assay [2] addresses MARK1 (Homo sapiens, UniProt Q9P0L2). Nature of the assay: ExpresS Diversity Kinase Profile, Cerep (LANCE): MARK1.
The target in assay [3] is PKA (Homo sapiens, UniProt P17612). Put plainly: ExpresS Diversity Kinase Profile, Cerep (LANCE): PKA.
The target in assay [4] is T1, PDK1 (Homo sapiens, UniProt O15530).
T1 sequence (O15530 1-556): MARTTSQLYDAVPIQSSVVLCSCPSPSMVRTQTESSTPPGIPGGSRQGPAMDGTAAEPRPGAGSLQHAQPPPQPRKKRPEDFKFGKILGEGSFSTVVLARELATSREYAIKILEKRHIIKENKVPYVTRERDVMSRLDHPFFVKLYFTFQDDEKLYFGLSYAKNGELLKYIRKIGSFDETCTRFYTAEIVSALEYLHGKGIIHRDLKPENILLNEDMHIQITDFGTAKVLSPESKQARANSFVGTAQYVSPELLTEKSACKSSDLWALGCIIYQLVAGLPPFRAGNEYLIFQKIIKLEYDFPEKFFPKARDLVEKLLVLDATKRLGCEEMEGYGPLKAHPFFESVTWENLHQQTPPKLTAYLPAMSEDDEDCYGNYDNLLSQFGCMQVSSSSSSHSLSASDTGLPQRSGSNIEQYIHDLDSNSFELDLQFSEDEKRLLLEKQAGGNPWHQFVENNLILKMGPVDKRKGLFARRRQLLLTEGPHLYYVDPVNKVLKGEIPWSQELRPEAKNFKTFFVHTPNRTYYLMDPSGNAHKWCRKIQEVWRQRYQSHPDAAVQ
Nature of the assay: ExpresS Diversity Kinase Profile, Cerep (LANCE): PDK1.

Assay [5] deals with T2, SGK1 (Homo sapiens, UniProt O00141).
T2 sequence (O00141 1-431): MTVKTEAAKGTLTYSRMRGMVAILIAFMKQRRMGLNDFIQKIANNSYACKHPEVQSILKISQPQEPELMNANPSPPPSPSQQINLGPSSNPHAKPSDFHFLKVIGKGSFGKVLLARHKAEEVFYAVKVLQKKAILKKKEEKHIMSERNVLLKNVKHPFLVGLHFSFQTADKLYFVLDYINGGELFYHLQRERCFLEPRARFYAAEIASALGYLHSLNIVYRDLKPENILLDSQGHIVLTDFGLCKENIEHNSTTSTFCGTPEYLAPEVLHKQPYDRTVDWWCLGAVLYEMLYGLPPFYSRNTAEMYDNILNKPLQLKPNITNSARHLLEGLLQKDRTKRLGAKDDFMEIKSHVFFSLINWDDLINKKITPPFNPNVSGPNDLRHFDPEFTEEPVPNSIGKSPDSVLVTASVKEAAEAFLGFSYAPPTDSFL
Nature of the assay: ExpresS Diversity Kinase Profile, Cerep (LANCE): SGK1.

The target in assay [6] is T3, TAOK2 (Homo sapiens, UniProt Q9UL54).
T3 sequence (Q9UL54 1-1235): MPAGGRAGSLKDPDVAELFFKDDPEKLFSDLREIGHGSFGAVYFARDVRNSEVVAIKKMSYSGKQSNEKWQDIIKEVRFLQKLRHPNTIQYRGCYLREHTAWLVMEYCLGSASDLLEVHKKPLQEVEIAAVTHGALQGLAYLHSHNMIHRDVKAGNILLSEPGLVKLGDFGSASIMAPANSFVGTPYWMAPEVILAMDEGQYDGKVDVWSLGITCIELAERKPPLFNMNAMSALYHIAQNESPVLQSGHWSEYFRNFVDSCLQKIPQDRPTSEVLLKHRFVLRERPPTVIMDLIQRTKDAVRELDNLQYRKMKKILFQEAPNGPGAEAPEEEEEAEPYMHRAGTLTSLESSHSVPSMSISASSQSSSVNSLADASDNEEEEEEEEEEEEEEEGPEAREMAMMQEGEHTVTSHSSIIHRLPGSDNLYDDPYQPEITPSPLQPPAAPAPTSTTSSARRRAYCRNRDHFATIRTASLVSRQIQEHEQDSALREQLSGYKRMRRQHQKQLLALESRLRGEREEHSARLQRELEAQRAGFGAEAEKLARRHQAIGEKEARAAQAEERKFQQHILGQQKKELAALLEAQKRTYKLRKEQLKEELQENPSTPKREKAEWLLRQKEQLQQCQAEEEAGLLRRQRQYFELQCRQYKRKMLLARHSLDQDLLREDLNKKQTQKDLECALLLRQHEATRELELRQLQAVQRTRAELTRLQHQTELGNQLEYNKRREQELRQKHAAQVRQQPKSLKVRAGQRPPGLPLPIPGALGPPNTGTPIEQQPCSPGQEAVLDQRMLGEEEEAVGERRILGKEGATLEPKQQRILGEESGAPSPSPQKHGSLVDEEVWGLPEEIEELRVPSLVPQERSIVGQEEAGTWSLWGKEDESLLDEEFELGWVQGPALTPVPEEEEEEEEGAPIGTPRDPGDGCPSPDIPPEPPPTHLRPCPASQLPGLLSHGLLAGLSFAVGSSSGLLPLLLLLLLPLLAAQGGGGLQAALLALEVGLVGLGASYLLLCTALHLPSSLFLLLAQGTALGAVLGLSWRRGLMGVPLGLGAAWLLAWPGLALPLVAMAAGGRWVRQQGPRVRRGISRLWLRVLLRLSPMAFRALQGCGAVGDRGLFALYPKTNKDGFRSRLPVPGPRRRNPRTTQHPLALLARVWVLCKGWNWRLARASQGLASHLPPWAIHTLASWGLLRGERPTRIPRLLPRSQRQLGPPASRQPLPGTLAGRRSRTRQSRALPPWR
Put plainly: ExpresS Diversity Kinase Profile, Cerep (LANCE): TAOK2.

[7] abbreviates: n = 2, read-out: % Inhibition of control values, Mean.
The mark [8] stands for this setting: read-out: % Inhibition of control values, 1st measurement.
The mark [9] stands for this setting: read-out: % Inhibition of control values, 2nd measurement.
[10] abbreviates: Flag: Interference, read-out: % Inhibition of control values, 1st measurement.
Setting [11] is: Flag: Interference, read-out: % Inhibition of control values, 2nd measurement.
Where [12] appears, read: n = 2, Flag: Interference, read-out: % Inhibition of control values, Mean.

MARK1, sequence (Q9P0L2 whole entry): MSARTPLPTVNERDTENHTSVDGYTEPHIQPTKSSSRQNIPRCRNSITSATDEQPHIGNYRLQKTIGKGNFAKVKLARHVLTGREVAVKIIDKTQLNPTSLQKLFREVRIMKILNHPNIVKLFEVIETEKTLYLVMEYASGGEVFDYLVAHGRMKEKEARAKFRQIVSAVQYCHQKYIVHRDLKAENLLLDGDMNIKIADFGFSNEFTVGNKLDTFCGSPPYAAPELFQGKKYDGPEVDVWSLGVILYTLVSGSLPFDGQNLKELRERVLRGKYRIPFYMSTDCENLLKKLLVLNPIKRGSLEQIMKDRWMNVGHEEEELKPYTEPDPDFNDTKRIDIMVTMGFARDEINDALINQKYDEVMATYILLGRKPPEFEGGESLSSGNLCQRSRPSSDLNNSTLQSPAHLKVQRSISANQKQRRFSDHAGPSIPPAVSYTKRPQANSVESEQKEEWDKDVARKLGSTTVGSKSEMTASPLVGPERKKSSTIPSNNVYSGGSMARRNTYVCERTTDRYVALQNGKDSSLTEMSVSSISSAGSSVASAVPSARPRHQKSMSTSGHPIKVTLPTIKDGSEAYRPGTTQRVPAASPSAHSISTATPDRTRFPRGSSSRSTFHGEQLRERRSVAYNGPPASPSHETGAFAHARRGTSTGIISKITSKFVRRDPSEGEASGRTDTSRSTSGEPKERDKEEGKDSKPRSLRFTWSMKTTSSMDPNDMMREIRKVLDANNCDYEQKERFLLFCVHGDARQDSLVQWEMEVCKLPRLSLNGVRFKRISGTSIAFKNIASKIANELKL
IRK, sequence (P06213 28-1382): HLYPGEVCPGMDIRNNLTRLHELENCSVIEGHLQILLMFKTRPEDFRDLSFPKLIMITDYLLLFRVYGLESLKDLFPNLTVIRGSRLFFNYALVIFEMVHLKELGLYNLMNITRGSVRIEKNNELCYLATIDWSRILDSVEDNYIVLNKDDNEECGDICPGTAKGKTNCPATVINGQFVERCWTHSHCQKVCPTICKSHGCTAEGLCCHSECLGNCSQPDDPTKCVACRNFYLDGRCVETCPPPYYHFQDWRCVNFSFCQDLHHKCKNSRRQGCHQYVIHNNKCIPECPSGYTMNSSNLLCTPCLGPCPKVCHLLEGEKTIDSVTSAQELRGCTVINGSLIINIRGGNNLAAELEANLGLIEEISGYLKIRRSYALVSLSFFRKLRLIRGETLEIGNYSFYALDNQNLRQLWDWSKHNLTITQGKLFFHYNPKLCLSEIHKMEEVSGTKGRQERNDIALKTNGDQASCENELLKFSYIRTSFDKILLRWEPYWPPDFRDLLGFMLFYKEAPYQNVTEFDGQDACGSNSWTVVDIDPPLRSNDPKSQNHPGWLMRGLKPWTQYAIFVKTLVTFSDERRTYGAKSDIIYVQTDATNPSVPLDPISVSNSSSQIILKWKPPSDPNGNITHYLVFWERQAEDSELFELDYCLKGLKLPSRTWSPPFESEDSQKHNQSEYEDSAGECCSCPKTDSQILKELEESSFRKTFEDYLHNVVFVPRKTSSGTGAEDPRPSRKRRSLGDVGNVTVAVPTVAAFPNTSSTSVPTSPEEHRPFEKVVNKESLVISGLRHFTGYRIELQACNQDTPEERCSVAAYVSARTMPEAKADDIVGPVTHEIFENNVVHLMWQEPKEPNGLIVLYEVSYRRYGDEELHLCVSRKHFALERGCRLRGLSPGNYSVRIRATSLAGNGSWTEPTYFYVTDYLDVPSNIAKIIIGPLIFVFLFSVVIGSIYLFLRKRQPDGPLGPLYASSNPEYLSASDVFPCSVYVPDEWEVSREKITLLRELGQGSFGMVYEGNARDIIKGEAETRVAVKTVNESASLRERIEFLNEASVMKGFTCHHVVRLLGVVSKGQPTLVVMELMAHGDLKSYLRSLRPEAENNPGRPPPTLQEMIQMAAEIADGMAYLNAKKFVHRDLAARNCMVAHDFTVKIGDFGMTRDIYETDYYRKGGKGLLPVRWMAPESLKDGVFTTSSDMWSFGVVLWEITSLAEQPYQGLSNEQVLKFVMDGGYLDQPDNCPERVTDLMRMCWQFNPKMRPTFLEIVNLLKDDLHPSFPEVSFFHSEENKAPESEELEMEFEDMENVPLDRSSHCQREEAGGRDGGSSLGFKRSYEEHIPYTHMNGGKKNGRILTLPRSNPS

Take `CN[C@@H]1C[C@H]2O[C@@](C)([C@@H]1OC)n1c3ccccc3c3c4c(c5c6ccccc6n2c5c31)C(=O)NC4` [Staurosporine, reference compound]: the nHill in assay [1] (control) is on record as 1.0; in assay [2] (control), 2.5; in assay [3] (control) it was greater than 3; in assay [4] (control), greater than 3; in assay [5] (control) it was greater than 3; in assay [6] (control), 1.6.
The inhibition is the drop in the measured response relative to a control, in per cent. Turning to `CC1(C)CCC2=C(O1)c1ccccc1C(=O)C2=O` [β-Lapachone], the inhibition at 150 µM in assay [1] (setting [7]) was 50.8%; in assay [1] (setting [8]), 50.9%; in assay [1] (setting [9]), 50.6%; in assay [2] (setting [7]), -57.4%; in assay [2] (setting [8]), -70.1%; in assay [2] (setting [9]), -44.7%. The inhibition at 150 µM in assay [3] (setting [10]) was -10.5%; in assay [3] (setting [11]), -5.4%; in assay [3] (setting [12]), -8%; in assay [4] (setting [7]), 1.4%; in assay [4] (setting [8]), 8.9%; in assay [4] (setting [9]) it was -6.1%. Further, the inhibition at 150 µM was found to be 54.5% in assay [5] (setting [7]); 54.4% in assay [5] (setting [8]); 54.5% in assay [5] (setting [9]); 32.9% in assay [6] (setting [10]); 33.1% in assay [6] (setting [11]); 33% in assay [6] (setting [12]).
